Source: ChEMBL document CHEMBL1201862, “PubChem BioAssay data set” (2004)
The source made the active and inactive calls.

Tests used:
Cytochrome P450 2D6 = Cytochrome P450 2D6 (Homo sapiens, UniProt P10635);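 note: CYP2D6 member of a cytochrome P450 panel assay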
[1] = biological target: T1, Nucleotide-binding oligomerization domain-containing protein 1 (Homo sapiens, UniProt Q9Y239); assay: SAR analysis of NF-kappaB dependent luciferase using DAP as an inducer - Set 2. [Related pubchem assays (depositor defined):AID1566, AID1575, AID1578, AID1579, AID1849, AID1852, AID2264]; type: functional
T1 sequence (Q9Y239 whole entry): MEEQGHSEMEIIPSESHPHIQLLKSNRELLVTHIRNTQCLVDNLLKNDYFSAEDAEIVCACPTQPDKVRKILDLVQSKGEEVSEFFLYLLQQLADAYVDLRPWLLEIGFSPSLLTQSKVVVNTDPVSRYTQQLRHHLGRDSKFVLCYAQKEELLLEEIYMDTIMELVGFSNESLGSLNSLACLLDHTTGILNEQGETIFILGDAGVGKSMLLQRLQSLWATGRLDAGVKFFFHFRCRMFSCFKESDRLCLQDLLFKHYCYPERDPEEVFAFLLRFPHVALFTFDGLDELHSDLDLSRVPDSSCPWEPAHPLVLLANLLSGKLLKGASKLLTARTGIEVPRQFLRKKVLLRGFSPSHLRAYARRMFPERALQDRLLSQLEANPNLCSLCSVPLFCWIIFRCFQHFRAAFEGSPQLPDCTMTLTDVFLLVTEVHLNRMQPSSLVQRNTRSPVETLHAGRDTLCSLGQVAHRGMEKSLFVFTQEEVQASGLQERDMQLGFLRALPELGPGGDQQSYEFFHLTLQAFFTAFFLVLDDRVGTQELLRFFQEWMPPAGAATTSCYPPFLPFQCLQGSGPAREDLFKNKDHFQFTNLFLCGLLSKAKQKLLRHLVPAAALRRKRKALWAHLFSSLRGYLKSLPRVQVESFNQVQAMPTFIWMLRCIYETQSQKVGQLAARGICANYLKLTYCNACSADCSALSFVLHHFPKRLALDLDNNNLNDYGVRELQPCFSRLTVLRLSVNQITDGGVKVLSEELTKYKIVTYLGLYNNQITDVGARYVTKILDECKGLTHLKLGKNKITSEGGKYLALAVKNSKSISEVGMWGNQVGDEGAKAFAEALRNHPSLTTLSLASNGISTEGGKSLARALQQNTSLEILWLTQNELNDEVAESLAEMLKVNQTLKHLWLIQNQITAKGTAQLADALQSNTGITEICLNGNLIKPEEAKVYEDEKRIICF

Interleukin-8 [2] = biological target: T2, Interleukin-8 (Homo sapiens, UniProt P10145); assay: SAR analysis of Tumor necrosis factor alpha (TNF-alpha) induced IL-8 secretion in MCF-7/NOD1 cells - Set 2. [Related pubchem assays (depositor defined):AID1575, AID2250, AID2260]; type: functional, cell-based
Interleukin-8 [3] = biological target: T2, Interleukin-8; assay: SAR analysis of GM-Tri-DAP induced IL-8 secretion in MCF-7/NOD1 cells - Set 2. [Related pubchem assays (depositor defined):AID1575, AID1578, AID2333]; type: functional, cell-based
[4] = biological target: T3, Nucleotide-binding oligomerization domain-containing protein 2 (Homo sapiens, UniProt Q9HC29); assay: NOD2 inhibitors, SAR follow-up, set 2 (AID 2475); type: functional
HEK293 [5] = assay: SAR analysis of compounds that are cytotoxic to HEK293 - Set 2. [Related pubchem assays (depositor defined):AID1575, AID1578, AID1849, AID2001, AID2333, AID2334, AID2335, AID2337, AID2800]; type: functional, cell-based; conditions: Homo sapiens
[6] = biological target: T1, Nucleotide-binding oligomerization domain-containing protein 1; assay: SAR analysis of compounds that inhibit NOD1 - Set 3. [Related pubchem assays (depositor defined):AID1566, AID1575, AID1578, AID1849, AID1852, AID2333, AID2335, AID2466]; type: functional
Tumor necrosis factor [7] = biological target: T4, Tumor necrosis factor (Homo sapiens, UniProt P01375); assay: TNFa-triggered NF-kB activation inhibitors, SAR follow-up, cell-based, set 3 (AID 2801); type: functional
HEK293 [8] = assay: SAR analysis of compounds that are cytotoxic to HEK293 - Set 3. [Related pubchem assays (depositor defined):AID1575, AID1578, AID1848, AID1849, AID2001, AID2333, AID2334, AID2335, AID2337, AID2469]; type: functional, cell-based; conditions: Homo sapiens
[9] = biological target: T3, Nucleotide-binding oligomerization domain-containing protein 2; assay: NOD2 signaling inhibitors, analog potency, SAR follow-up, cell-based, set 3 (AID 2799); type: functional
[10] = tested on: Streptococcus sp. 'group A'; assay: growth inhibition of control SK(-) GAS strain, dose response, counter-screen for streptokinase expression inhibitor project, luminescence, kanamycin, BacTiterGlo, confirmation (AID 1900); type: functional, organism-based
[11] = cytotoxicity in HPDE-C7 cells, cell-based, fluorescence, HTS (AID 430); type: functional; conditions: Homo sapiens
[12] = cytotoxicity in KRAS-transformed pancreatic duct cells, primary screen, cell-based, fluorescence, HTS (AID 431); type: functional; conditions: Homo sapiens;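 note: cell line used: HPDE-C7K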
Streptococcus = assay: Group A Streptococcus viability loss, dose response, counter-screen for streptokinase expression inhibitor project, luminescence, BacTiterGlo (AID 1915); type: functional, organism-based;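 note: potency for reduction of bacterial viability or growth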
Exodeoxyribonuclease V = Exodeoxyribonuclease V (Escherichia coli (strain K12), UniProt P04993+P07648+P08394); assay: E. coli RecBCD inhibitors, dose response, counter-screen for AddAB inhibitor project, absorbance, V66 E. coli, mutant T4 phage (AID 492957); type: functional, cell-based, Escherichia coli str. K-12 substr. MG1655
[13] = Counterscreen for AddAB inhibitors: absorbance-based bacterial cell-based high throughput dose response assay for inhibitors of bacterial viability. [Related pubchem assays (depositor defined):AID435030, AID449728, AID449731, AID488942, AID488955, AID488956]; type: functional
[14] = biological target: Sphingosine 1-phosphate receptor 5 (Homo sapiens, UniProt Q9H228); assay: Late stage counterscreen assay for S1P4 antagonists: Fluorescence dose response cell-based screening assay for antagonists of the Sphingosine 1-Phosphate Receptor 5 (S1P5). [Related pubchem assays (depositor defined):AID1510, AID1524, AID1692, AID1853, AID2332, AID489009, AID489017]; type: functional
[15] = biological target: Sphingosine 1-phosphate receptor 3 (Homo sapiens, UniProt Q99500); assay: Late stage counterscreen assay for S1P4 antagonists: Fluorescence dose response cell-based screening assay for antagonists of the Sphingosine 1-Phosphate Receptor 3 (S1P3). [Related pubchem assays (depositor defined):AID1510, AID1524, AID1692, AID1853, AID2332, AID489009, AID489017]; type: functional
[16] = biological target: Sphingosine 1-phosphate receptor 1 (Homo sapiens, UniProt P21453); assay: Late stage counterscreen assay for S1P4 antagonists: Fluorescence dose response cell-based screening assay for antagonists of the Sphingosine 1-Phosphate Receptor 1 (S1P1). [Related pubchem assays (depositor defined):AID1510, AID1524, AID1692, AID1853, AID2332, AID489009, AID489017]; type: functional
[17] = biological target: Sphingosine 1-phosphate receptor 2 (Homo sapiens, UniProt O95136); assay: Late stage counterscreen assay for S1P4 antagonists: Fluorescence dose response cell-based screening assay for antagonists of the Sphingosine 1-Phosphate Receptor 2 (S1P2). [Related pubchem assays (depositor defined):AID1510, AID1524, AID1692, AID1853, AID2332, AID489009, AID489017]; type: functional
Tumor necrosis factor [18] = biological target: T4, Tumor necrosis factor; assay: TNFa-triggered NF-kB activation inhibitors, SAR follow-up, cell-based, revised (AID 2337); type: functional
[19] = biological target: T1, Nucleotide-binding oligomerization domain-containing protein 1; assay: NOD1 signaling inhibitors, SAR follow-up, revised (AID 2333); type: functional
[20] = biological target: T3, Nucleotide-binding oligomerization domain-containing protein 2; assay: PubChem AID 2334; type: functional
HEK293 [21] = assay: cells; conditions: Homo sapiens
Mu-type opioid receptor [22] = biological target: T5, Mu-type opioid receptor (Homo sapiens, UniProt P35372); assay: MOR agonists by imaging, SAR follow-up, image-based (AID 2352); type: functional
[23] = biological target: T6, Delta-type opioid receptor (Homo sapiens, UniProt P41143); assay: DOR agonists, SAR follow-up, image-based (AID 2370); type: functional
[24] = biological target: T7, Kappa-type opioid receptor (Homo sapiens, UniProt P41145); assay: KOR antagonists by imaging, SAR follow-up, image-based (AID 2348); type: functional
Mu-type opioid receptor [25] = biological target: T5, Mu-type opioid receptor; assay: MOR antagonists, SAR follow-up, image-based (AID 2420); type: functional;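 note: compounds added before stimulation of receptor with agonist DAMGO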
[26] = biological target: T7, Kappa-type opioid receptor; assay: KOR agonist analogs, imaging readout, SAR follow-up, image-based (AID 2359); type: functional
[27] = biological target: T6, Delta-type opioid receptor; assay: DOR antagonists, SAR follow-up, image-based (AID 2357); type: functional
[28] = biological target: T7, Kappa-type opioid receptor; assay: kappa opioid receptor blockers, cell-based, luminescence, beta-arrestin, SAR follow-up (AID 2285); type: functional
[29] = Luminescence Cell-Based Dose Retest to Confirm Inhibitors of Cancer Stem Cells. [Related pubchem assays (depositor defined):AID2717, AID2721]; type: functional; conditions: Homo sapiens
[30] = biological target: Intestinal-type alkaline phosphatase (Mus musculus, UniProt P24822); assay: PubChem AID 488875; type: functional
[31] = biological target: T8, Intestinal-type alkaline phosphatase (Homo sapiens, UniProt P09923); assay: human intestinal alkaline phosphatase activators, dose response, biochemical, luminescence, uHTS hits (AID 463120); type: functional
[32] = biological target: T8, Intestinal-type alkaline phosphatase; assay: human IAP activators, dose response, biochemical, luminescent, uHTS hits, set 2 (AID 488817); type: functional;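 note: potency of activators that raise enzyme activity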
[33] = biological target: T9, Alkaline phosphatase, tissue-nonspecific isozyme (Homo sapiens, UniProt P05186); assay: TNAP enzyme activators, dose response, selectivity assay for human IAP activator project, biochemical, TNAP isozyme, human IAP uHTS hits (AID 488886); type: functional;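 note: potency of compounds raising TNAP activity as a selectivity check on IAP activators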
T9 sequence (P05186 whole entry): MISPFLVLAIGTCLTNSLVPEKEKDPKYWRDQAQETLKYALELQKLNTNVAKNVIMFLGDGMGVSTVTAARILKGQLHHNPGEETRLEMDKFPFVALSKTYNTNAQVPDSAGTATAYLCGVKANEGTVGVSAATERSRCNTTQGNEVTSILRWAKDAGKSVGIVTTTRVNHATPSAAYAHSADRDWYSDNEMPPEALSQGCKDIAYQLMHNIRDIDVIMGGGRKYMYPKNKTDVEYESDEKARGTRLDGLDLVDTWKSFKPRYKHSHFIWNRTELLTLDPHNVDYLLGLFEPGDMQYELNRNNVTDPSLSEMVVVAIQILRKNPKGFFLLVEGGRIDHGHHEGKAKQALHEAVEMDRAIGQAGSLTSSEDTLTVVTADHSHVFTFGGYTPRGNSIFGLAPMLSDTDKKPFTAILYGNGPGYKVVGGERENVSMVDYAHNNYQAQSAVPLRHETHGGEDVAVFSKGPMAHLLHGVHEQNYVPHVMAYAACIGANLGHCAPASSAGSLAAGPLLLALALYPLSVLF

T7 sequence (P41145 whole entry): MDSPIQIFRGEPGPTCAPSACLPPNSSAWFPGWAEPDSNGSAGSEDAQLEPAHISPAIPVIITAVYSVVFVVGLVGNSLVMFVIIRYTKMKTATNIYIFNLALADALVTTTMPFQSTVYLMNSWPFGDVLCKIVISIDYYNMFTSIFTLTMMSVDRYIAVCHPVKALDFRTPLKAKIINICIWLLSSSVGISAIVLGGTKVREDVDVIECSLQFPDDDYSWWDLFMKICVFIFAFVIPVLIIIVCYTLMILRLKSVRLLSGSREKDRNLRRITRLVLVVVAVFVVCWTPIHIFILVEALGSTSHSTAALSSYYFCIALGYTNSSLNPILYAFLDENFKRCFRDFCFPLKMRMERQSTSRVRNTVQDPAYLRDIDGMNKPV
T3 sequence (Q9HC29 whole entry, the tested form may be a part): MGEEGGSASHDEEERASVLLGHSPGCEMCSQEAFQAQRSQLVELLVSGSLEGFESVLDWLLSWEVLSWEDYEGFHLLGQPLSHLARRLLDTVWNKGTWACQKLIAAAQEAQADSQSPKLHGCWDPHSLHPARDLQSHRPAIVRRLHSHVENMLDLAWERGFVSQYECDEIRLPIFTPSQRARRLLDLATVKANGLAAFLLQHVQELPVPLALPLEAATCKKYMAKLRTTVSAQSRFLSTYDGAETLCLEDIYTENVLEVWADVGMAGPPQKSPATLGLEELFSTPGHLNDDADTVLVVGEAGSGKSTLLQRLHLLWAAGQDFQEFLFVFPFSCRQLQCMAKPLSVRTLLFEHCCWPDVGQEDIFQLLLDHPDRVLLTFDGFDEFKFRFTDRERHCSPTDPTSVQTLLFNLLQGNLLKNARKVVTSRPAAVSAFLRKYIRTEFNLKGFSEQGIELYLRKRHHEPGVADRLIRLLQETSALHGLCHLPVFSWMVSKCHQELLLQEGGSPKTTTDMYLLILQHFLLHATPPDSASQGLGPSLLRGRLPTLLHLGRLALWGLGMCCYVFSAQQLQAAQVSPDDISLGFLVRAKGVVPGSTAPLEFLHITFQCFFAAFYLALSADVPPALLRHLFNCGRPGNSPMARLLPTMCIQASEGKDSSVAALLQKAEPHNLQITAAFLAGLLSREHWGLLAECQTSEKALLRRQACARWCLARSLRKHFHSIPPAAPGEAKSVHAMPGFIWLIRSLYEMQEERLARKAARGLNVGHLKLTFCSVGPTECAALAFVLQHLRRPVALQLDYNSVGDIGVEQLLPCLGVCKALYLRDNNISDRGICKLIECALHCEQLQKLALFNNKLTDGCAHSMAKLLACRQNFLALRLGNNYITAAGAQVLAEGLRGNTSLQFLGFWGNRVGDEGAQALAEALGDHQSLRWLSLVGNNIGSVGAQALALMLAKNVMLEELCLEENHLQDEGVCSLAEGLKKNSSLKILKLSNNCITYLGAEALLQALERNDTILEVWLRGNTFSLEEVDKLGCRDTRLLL
T5 sequence (P35372 whole entry): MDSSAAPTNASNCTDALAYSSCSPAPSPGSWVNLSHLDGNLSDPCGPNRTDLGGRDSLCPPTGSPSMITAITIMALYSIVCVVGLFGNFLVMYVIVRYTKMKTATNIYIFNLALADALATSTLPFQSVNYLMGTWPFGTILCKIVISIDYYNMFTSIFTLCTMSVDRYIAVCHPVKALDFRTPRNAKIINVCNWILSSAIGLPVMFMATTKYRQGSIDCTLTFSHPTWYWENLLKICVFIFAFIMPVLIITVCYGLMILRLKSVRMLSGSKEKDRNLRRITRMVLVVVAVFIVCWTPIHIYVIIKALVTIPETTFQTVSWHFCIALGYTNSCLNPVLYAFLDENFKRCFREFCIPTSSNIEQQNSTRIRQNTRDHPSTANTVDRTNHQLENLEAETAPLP
T4 sequence (P01375 whole entry): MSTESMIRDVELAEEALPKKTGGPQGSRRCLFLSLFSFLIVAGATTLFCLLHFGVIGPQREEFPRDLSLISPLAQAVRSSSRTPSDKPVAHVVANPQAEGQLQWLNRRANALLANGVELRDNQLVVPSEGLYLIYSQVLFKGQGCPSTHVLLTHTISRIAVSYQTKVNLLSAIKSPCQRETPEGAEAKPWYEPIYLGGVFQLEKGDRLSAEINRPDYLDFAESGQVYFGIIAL
T2 sequence (P10145 whole entry): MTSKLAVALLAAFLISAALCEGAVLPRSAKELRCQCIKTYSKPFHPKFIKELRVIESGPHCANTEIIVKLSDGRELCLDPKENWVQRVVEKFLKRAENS
T6 sequence (P41143 whole entry): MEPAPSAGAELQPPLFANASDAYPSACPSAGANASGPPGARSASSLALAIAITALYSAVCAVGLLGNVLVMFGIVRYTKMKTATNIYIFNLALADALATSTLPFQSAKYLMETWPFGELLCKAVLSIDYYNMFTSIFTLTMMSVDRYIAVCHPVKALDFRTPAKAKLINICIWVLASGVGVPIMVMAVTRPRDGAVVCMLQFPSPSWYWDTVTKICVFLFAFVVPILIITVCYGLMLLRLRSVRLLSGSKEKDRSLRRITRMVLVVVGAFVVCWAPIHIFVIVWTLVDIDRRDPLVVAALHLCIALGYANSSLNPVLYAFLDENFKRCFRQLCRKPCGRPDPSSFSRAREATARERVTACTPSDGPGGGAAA
T8 sequence (P09923 whole entry): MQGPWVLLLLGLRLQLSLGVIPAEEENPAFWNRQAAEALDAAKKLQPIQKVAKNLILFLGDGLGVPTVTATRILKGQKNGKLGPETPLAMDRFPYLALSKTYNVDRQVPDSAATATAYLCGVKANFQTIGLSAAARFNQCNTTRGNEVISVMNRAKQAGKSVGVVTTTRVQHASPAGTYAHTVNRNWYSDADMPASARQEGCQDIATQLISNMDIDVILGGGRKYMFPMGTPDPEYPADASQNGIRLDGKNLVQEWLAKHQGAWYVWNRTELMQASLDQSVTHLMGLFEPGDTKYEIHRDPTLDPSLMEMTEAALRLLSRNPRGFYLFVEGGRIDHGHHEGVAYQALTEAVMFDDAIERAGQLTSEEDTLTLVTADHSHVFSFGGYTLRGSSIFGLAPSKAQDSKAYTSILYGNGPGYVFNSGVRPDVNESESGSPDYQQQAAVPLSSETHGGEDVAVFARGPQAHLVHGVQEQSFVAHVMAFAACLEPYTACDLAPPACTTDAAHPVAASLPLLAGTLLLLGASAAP
Sequence of Intestinal-type alkaline phosphatase (Mus musculus, UniProt P24822) (P24822 whole entry): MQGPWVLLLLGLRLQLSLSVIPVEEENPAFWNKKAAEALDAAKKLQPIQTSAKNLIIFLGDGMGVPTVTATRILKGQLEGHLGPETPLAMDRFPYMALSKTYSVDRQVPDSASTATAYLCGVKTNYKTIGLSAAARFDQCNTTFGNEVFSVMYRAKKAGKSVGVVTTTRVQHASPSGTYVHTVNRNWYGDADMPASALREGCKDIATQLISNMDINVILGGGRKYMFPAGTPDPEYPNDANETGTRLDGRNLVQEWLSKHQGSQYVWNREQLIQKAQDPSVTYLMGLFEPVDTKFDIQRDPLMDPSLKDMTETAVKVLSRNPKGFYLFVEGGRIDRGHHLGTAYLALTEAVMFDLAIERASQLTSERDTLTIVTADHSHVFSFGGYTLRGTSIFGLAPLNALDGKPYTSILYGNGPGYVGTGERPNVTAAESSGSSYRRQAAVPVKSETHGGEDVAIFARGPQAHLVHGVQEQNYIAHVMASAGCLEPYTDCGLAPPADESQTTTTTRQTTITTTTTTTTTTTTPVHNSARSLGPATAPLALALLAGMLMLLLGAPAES
Sequence of Sphingosine 1-phosphate receptor 2 (O95136 whole entry): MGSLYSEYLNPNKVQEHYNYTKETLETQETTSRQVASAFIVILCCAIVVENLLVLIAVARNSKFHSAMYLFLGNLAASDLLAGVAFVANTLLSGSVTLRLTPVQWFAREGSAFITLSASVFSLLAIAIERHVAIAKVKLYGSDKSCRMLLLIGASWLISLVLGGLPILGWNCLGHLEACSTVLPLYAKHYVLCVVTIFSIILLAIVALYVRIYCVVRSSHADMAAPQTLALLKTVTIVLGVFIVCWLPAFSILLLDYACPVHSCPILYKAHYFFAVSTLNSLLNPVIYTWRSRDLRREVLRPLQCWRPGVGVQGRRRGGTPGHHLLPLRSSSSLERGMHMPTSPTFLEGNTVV
Sequence of Sphingosine 1-phosphate receptor 3 (Q99500 whole entry): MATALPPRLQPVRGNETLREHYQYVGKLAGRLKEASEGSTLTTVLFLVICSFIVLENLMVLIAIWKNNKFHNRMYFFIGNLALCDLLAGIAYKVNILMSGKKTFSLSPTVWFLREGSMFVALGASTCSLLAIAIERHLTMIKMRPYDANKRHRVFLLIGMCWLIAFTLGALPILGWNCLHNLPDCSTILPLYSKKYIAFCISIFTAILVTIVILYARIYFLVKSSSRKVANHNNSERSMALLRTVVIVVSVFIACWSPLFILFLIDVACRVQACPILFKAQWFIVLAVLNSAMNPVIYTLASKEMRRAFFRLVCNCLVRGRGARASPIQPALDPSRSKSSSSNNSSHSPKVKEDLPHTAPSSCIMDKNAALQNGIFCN
Sequence of Sphingosine 1-phosphate receptor 5 (Q9H228 whole entry): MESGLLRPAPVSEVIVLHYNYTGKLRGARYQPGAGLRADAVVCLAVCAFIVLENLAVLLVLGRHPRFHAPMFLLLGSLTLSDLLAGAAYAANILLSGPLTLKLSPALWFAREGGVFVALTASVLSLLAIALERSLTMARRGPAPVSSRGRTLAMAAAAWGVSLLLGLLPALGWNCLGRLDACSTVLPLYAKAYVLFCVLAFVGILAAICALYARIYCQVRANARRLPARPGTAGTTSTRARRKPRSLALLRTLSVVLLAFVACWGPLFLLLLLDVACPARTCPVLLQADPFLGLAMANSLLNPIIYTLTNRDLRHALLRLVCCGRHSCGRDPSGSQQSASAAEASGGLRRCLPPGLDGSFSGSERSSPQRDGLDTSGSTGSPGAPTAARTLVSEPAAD

Cc1cn([C@H]2C[C@H](O)[C@@H](COC(N)=O)O2)c(=O)[nH]c1=O
inconclusive: AC50 (Cytochrome P450 2D6)

C/C=C/Cn1c(SCc2ccccc2)nc2c1c(=O)[nH]c(=O)n2C
inactive: IC50 [1] > 25 µM | IC50 (Interleukin-8 [2]) > 25 µM | IC50 (Interleukin-8 [3]) > 25 µM | IC50 [4] > 20 µM | IC50 (HEK293 [5]) > 20 µM | IC50 (Tumor necrosis factor [7]) > 20 µM | IC50 (HEK293 [8]) > 20 µM | IC50 [9] > 20 µM
active: IC50 [6] 18.6 µM

O=C(Nc1nnc(-c2ccccc2)o1)c1ccc(Cl)cc1
active: EC50 [10] 0.26 µM | EC50 [11] 3.14 µM | EC50 [12] 3.15 µM | EC50 (Streptococcus) 0.67 µM
inactive: IC50 (Exodeoxyribonuclease V) 44.2 µM | IC50 [13] 47 µM

COc1cccc(C)c1NC(=O)c1ccc(-c2cc(Cl)ccc2Cl)o1
inactive: IC50 [14] 11.2 µM
active: IC50 [15] 9.87 µM | IC50 [16] 9.31 µM | IC50 [17] 4.77 µM

CC(=O)Nc1nc2ccccc2n1S(=O)(=O)c1ccc(C)cc1
active: IC50 [19] 3.8 µM
inactive: IC50 (Tumor necrosis factor [18]) > 20 µM | IC50 [20] > 20 µM | IC50 (HEK293 [21]) > 20 µM

O=C(NC(NC(=S)Nc1cccc(Br)c1)C(Cl)(Cl)Cl)OCc1ccccc1 (stereo unspecified)
inactive: EC50 (Mu-type opioid receptor [22]) > 32 µM | EC50 [23] > 32 µM | IC50 [24] > 32 µM | IC50 (Mu-type opioid receptor [25]) > 32 µM | EC50 [26] > 32 µM | IC50 [27] > 32 µM | IC50 [28] > 10 µM

Cc1ccc(-c2cc(C(=O)N/N=C/c3ccccc3O)[nH]n2)o1
inactive: EC50 [30] > 100 µM
active: AC50 [29] 8.36 µM | EC50 [31] 5.71 µM | EC50 [32] 6.54 µM | EC50 [33] 3.89 µM
